Common to all, as to assay: Competitive isoTOP-ABPP in situ (fragment-treated cells)
Holding throughout (assay type): cell-based
Conditions in all cases: 200 μM, insitu, 231

For test [1], the target named is T1, cysteines in MDA-MB-231 and Ramos cells (Homo sapiens, UniProt Q96CM8).
T1 sequence (Q96CM8 42-615): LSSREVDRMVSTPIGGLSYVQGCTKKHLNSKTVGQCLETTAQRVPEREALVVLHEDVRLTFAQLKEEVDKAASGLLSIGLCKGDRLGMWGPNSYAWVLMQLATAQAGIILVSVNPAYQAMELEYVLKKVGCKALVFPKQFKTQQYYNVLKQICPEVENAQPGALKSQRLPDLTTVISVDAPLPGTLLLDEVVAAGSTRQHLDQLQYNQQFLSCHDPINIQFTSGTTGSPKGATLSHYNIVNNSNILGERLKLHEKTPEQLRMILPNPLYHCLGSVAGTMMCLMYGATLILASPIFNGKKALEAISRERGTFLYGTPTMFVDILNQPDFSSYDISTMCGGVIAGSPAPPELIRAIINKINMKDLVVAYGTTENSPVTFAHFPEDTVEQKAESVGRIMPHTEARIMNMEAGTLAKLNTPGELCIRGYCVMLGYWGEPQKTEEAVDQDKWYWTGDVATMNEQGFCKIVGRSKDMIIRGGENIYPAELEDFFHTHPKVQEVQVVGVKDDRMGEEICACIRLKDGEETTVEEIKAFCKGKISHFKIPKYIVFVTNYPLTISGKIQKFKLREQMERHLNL
Protocol: (§1) Fragments 4 and 11 were screened at 100 μM in situ. […] Site-specific engagement of electrophilic fragments was assessed by blockade of IA-alkyne probe labeling. […] Ratios for unique peptide entries were calculated for each experiment; overlapping peptides with the same modified cysteine (e.g. different charge states, MudPIT chromatographic steps or tryptic termini) were grouped together and the median ratio was reported as the final ratio (R). The peptide ratios reported by CIMAGE were further filtered to ensure the removal or correction of low quality ratios in each individual dataset. […] R values were calculated and individual datasets were filtered as described above (R value calculation and processing).

Test [2] deals with T2, cysteines in MDA-MB-231 and Ramos cells (Homo sapiens, UniProt Q9UKF6).
T2 sequence (Q9UKF6 1-684): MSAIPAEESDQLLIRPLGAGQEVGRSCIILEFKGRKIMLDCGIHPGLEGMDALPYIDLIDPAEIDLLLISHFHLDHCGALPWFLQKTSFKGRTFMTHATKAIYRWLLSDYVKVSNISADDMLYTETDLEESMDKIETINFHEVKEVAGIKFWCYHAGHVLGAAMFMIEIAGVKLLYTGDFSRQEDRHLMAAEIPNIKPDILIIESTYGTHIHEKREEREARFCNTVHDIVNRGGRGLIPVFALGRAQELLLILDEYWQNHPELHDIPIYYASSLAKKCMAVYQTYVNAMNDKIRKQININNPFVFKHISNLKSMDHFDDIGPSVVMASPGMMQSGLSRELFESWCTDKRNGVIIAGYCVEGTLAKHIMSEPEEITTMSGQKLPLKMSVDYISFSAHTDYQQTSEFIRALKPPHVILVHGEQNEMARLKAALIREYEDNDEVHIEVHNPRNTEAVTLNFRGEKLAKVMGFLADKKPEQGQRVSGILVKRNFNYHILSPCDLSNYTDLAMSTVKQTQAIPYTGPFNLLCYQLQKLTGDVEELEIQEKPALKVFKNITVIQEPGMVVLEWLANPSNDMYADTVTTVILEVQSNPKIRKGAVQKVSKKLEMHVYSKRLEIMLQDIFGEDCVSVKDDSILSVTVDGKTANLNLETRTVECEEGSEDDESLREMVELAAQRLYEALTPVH
Protocol: as §1

Test [3] addresses cysteines in MDA-MB-231 and Ramos cells (Homo sapiens, UniProt Q13526).
Protocol: as §1
The target of test [4] is T3, cysteines in MDA-MB-231 and Ramos cells (Homo sapiens, UniProt Q9NRG0).
T3 sequence (Q9NRG0 1-131): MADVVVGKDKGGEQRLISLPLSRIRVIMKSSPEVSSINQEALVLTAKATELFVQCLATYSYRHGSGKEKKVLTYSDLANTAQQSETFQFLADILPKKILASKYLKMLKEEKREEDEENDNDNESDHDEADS
Protocol: as §1

Test [5] addresses T4, cysteines in MDA-MB-231 and Ramos cells (Homo sapiens, UniProt Q9BRA2).
T4 sequence (Q9BRA2 1-123): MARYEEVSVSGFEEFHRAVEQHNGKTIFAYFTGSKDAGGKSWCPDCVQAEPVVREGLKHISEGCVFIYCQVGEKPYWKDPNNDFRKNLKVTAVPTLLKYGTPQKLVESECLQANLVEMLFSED
Protocol: as §1

Test [6] addresses T5, cysteines in MDA-MB-231 and Ramos cells (Homo sapiens, UniProt Q15233).
T5 sequence (Q15233 1-471): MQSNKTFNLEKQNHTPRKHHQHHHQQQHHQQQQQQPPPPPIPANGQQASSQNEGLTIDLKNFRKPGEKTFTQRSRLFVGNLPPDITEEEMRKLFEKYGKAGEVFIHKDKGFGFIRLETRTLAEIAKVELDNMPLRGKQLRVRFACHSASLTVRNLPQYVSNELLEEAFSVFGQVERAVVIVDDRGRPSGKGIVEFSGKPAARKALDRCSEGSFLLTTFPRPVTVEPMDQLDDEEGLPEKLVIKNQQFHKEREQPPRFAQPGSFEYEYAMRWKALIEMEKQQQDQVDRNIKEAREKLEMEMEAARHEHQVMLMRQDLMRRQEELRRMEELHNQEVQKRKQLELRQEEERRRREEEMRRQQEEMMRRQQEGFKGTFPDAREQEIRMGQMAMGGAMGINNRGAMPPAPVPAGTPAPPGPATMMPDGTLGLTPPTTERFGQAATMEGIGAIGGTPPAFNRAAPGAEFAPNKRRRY
Protocol: as §1

The target in test [7] is cysteines in MDA-MB-231 and Ramos cells (Homo sapiens, UniProt Q15365).
Sequence of cysteines in MDA-MB-231 and Ramos cells (Homo sapiens, UniProt Q15365) (Q15365 whole entry): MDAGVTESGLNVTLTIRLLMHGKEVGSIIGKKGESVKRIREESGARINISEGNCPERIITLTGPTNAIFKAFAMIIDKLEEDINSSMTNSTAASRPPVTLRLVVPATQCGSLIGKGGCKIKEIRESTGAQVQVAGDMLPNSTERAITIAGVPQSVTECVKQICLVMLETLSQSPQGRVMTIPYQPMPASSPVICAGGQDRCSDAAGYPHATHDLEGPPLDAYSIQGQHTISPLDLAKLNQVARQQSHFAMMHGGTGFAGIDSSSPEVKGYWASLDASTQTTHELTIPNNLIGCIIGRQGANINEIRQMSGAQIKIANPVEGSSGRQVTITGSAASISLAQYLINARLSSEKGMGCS
Protocol: as §1

Sequence of cysteines in MDA-MB-231 and Ramos cells (Homo sapiens, UniProt Q13526) (Q13526 whole entry): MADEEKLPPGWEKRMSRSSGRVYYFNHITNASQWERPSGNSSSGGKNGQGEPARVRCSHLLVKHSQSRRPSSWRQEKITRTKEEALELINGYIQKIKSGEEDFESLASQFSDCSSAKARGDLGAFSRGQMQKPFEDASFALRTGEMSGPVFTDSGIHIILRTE

Regarding `COc1cc2c(cc1OC)CN(C(=O)CCl)CC2` [compound 8], the “isoTOP-ABPP reactivity Q96CM8_C64 ACSF2” value in test [1] is 20.0. The “isoTOP-ABPP reactivity Q9UKF6_C498 CPSF3” value in test [2] is 20.0. Besides, the “isoTOP-ABPP reactivity Q13526_C113 PIN1” value in test [3] is listed as 2.6. In addition, the “isoTOP-ABPP reactivity Q9NRG0_C55 CHRAC1” value in test [4] came out at 7.4. Also, in test [5], the “isoTOP-ABPP reactivity Q9BRA2_C43 TXNDC17” value is 20.0. Further, the “isoTOP-ABPP reactivity Q15233_C145 NONO” value in test [6] amounted to 12.0. The “isoTOP-ABPP reactivity Q15365_C194 PCBP1” value in test [7] worked out at 1.4.

The values are drawn from US10670605B2, “Cysteine reactive probes and uses thereof” (The Scripps Research Institute, priority 2015, dated 2020).
